According to patent US11865176B2, “Compositions and methods of modulating anti-tumor immunity” (Dana-Farber Cancer Institute, Inc., priority 2016, dated 2024):

System: PD-1-overexpressing Jurkat cells
Test: Small molecule screen: IL2 secretion (AlphaLISA) from stimulated PD-1-overexpressing Jurkat cells
Format: cell-based, human
Conditions: 3.3 μM compound; for Zscore_1 / Zscore_2: IL2 level, α-CD3/α-CD28/α-PD-1 beads; for Zscore_1: replicate 1; for Zscore_2: replicate 2; for Zscore_AVG: average of replicate Z scores
Procedure: PD-1-overexpressing Jurkat cells were plated at a concentration of 100,000 cells/well in a total volume of 80 μl. […] Dynabeads conjugated to α-CD3, α-CD28, and α-PD-1 antibodies were added in 20 for a final assay volume of 100 with a final compound concentration of 3.3 μM and an 8:1 bead:cell ratio. Beads were conjugated to α-CD3/α-CD28/control IgG and added to wells containing DMSO-treated cells as a positive control, while beads conjugated to α-CD3/α-CD28/α-PD1 were added to wells containing DMSO-treated cells as a negative control. Supernatants from each well were analyzed for IL2 levels by AlphaLISA (Perkin Elmers) according to the manufacturer's protocol. Average and standard deviation values were calculated from the PD-1 controls (DMSO-treated cells stimulated with α-CD3/α-CD28/α-PD-1 beads); hits were defined as compounds scoring at least 3 standard deviations from the mean of the controls.
In addition to known negative regulators of IL-2 production (e.g. glycogen synthase kinase-3α/β (GSK3α/β) (24,25)), this screen identified cyclin-dependent kinases 4 and 6 inhibitors (CDK4/6i) as top hits (Table 1).

| SMILES | Zscore_1 | Zscore_2 | Zscore_AVG |
| --- | --- | --- | --- |
| COc1cc(SC)ccc1C(=O)N1CCC(Cc2ccccc2)CC1 [p38 MAP Kinase Inhibitor VI, JX401] | −0.3753 | −0.9241 | −0.6497 |
| O=C1Cc2c([nH]c3ccc([N+](=O)[O-])cc23)-c2ccccc2N1 [Alsterpaullone] | −0.7783 | −3.341 | −2.06 |
| CN(C)S(=O)(=O)c1ccc2c(c1)/C(=C/c1cc3c([nH]1)CCCC3)C(=O)N2 [SU6656] | 1.733 | 1.333 | 1.533 |
| O=C(Nc1cc(C(F)(F)F)cc(C(F)(F)F)c1)c1cc(Cl)ccc1O [IKK-2 Inhibitor V] | −5.485 | −7.792 | −6.638 |
| Cc1cc(C(C)Nc2ccccc2)c2nc(N3CCOCC3)cc(=O)n2c1 (stereo not drawn) [PI 3-Kβ Inhibitor VI, TGX-221] | 2.504 | 2.528 | 2.516 |
| CCCC(=O)Oc1ccc2[nH]c(C(=O)c3cc4ccccc4[nH]3)cc2c1 [PDGF Receptor Tyrosine Kinase Inhibitor II] | −0.7009 | 0.7754 | 0.03721 |
| C[S+]([O-])c1ccc(-c2nc(-c3ccc(F)cc3)c(-c3ccncc3)[nH]2)cc1 (stereo not drawn) [SB 203580] | −0.8209 | −0.02124 | −0.4211 |
| CO[C@H]1C[C@@H]2CC[C@@H](C)[C@@](O)(O2)C(=O)C(=O)N2CCCC[C@H]2C(=O)O[C@H]([C@H](C)C[C@@H]2CC[C@@H](O)[C@H](OC)C2)CC(=O)[C@H](C)/C=C(\C)[C@@H](O)[C@@H](OC)C(=O)[C@H](C)C[C@H](C)/C=C/C=C/C=C/1C [Rapamycin] | −1.883 | −3.367 | −2.625 |
| Cc1cc(C)c(/C=C2\C(=O)Nc3ccccc32)[nH]1 [VEGF Receptor 2 Kinase Inhibitor III] | −0.2089 | −2.04 | −1.124 |
| c1ccc2c(-c3ccncc3)c[nH]c2c1 [Rho Kinase Inhibitor III, Rockout] | −0.1806 | −2.59 | −1.385 |
| COc1cc2ncnc(Nc3ccc(Oc4ccccc4)cc3)c2cc1OC [Src Kinase Inhibitor I] | 4.691 | 1.808 | 3.249 |
| CO[C@H]1[C@@H](OC)C[C@H](C)[C@@H](OC)C2=CC(=O)C=C(NC(=O)/C(C)=C/C=C\[C@H](OC)[C@@H](OC(N)=O)/C(C)=C/[C@@H]1C)C2=O [Herbimycin A, Streptomyces sp.] | 5.643 | 3.663 | 4.653 |
| CC(C)(C)c1nc2c3cc[nH]c(=O)c3c3cc(F)ccc3c2[nH]1 [JAK Inhibitor I] | −4.034 | −6.012 | −5.023 |
| Nc1ncnc2c1c(I)cn2[C@@H]1O[C@H](CO)[C@@H](O)[C@H]1O [5-Iodotubercidin] | −4.799 | −6.213 | −5.506 |
| O=C1NC(=O)C(c2cn(CCCO)c3ncccc23)=C1c1cnccn1 [GSK-3b Inhibitor XI] | 5.72 | 4.871 | 5.296 |
| O=S(=O)(c1c(O)c(Cl)cc(Cl)c1Cl)c1c(O)c(Cl)cc(Cl)c1Cl [p38 MAP Kinase Inhibitor IV] | −0.6495 | 0.005311 | −0.3221 |
| CC(C)N(CCC(=O)c1ccc2ccccc2c1)Cc1ccccc1 [JAK3 Inhibitor IV] | 0.2022 | 0.908 | 0.5551 |
| CCOc1cc2ncnc(Nc3cccc(Br)c3)c2cc1OCC [Compound 56] | −1.072 | −2.222 | −1.647 |
| CSc1nc(-c2ccnc(NC(C)c3ccccc3)c2)c(-c2ccc(F)cc2)[nH]1 (stereo not drawn) [p38 MAP Kinase Inhibitor III] | −0.7009 | 0.6426 | −0.02917 |
